Measured values: article PMC12434536, “Radiosynthesis and Preclinical Evaluation of a Carbon-11 Labeled Phosphodiesterase 7 Inhibitor for PET Neuroimaging” (ACS Medicinal Chemistry Letters, 2025)
Read-outs that look alike come from different tables or passages of the source.

Tests used:
[1] = Pharmacokinetics in plasma and brain (NeuroPK study); format: in vivo, Sprague-Dawley rats
Description: Pharmacokinetics in Plasma and Brain (NeuroPK study)
Nine male wildtype Sprague Dawley rats were administered a bolus injection containing compound 27 in saline (1 mg/kg, 2 mL/kg) via the tail vein. Blood samples (approximately 120 µL) were harvested under light isoflurane anesthesia from a set of three rats at 0.08, 0.25, and 1 hr. Blood and brain samples were collected at 5, […] and 60 min. Following centrifugation of blood samples, the resulting plasma supernatant was stored at -70 ± 10 °C till further analysis. Brain samples were homogenized using ice-cold phosphate buffer saline (pH 7.4) and homogenates were stored below -70 ± 10 °C until further analysis. Total homogenate volume was three times the brain weight. Plasma and brain samples were quantified by LC-MS/MS method. The plasma and brain concentration-time data of compound 27 was used for pharmacokinetic analysis. […]

hERG channel = hERG channel (Homo sapiens, UniProt Q12809); assay: In vitro safety: hERG channel inhibition; format: biochemical
Sequence of hERG channel (Q12809 whole entry): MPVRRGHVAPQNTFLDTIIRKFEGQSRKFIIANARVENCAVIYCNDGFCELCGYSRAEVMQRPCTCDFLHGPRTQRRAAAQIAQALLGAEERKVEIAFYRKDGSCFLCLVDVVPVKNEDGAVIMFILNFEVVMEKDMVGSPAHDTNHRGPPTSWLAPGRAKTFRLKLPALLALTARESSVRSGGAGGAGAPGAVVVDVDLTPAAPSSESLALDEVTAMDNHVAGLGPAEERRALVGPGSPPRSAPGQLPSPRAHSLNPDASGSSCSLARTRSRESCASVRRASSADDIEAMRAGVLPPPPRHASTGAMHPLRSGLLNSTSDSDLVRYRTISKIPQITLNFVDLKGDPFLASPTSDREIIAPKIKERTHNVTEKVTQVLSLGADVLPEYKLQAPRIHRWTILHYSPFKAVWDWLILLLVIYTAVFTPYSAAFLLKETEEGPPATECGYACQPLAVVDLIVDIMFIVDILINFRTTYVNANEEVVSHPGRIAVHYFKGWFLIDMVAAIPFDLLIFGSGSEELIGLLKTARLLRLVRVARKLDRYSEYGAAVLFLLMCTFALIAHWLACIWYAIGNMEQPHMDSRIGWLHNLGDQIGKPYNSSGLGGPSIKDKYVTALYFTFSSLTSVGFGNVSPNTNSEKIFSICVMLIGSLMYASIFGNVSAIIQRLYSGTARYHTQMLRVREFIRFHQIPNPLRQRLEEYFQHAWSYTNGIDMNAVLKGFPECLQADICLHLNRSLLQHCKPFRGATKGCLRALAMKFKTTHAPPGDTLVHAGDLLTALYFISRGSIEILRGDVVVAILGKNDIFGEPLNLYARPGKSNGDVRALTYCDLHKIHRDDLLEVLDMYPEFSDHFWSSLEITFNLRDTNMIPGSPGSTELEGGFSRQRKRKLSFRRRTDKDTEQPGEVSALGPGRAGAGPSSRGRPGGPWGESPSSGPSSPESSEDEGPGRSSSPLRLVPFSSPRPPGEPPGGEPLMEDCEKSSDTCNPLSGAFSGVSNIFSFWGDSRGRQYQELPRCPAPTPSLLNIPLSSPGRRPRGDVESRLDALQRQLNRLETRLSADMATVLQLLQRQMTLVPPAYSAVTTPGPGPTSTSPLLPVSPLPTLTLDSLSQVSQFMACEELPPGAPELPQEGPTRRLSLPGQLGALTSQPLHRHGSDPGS
Description: time-dependent manner for 80 min with an acquisition interval of 2 min. IC50 curves were
plotted using a non-linear regression model with Graphpad Prism 6. The latter method was
further applied to assess the inhibitory constant of compound 27 to the hERG channel. […]

[2] = molecular target: T1, HEK293-PDE7B recombinant cell lines (Homo sapiens, UniProt Q9NP56); assay: In vitro cell uptake and blocking of [11C]27; format: cell-based; conditions: blocker 1 μM, 60 min incubation, PDE7B overexpressing HEK293 cells, n = 4
T1 construct: host or cells: HEK293
T1 sequence (Q9NP56 whole entry): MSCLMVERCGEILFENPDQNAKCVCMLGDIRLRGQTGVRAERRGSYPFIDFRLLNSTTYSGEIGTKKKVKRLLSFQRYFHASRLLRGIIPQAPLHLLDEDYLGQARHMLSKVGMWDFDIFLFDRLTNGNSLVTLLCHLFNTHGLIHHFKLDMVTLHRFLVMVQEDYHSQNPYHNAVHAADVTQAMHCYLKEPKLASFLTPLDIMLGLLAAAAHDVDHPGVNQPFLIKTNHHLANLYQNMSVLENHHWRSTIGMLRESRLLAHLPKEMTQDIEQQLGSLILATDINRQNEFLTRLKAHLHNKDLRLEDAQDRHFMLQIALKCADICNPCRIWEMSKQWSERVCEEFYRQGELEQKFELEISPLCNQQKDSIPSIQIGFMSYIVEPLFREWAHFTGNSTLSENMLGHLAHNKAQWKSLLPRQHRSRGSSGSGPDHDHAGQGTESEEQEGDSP
Description: Control study: HEK293-PDE7B Recombinant cells (catalog#60412, BPS Bioscience) and HEK293 control cells (catalog# CRL-1573, ATCC) – both in logarithmic growth phase – were plated in a 24 well plate (2 × 10^5 cells per well) and cultured overnight. After 24 hr, each well was added 2 μCi of [ 11C]27, and incubated at 37 °C for 30 min or 60 min. The radioactive medium was aspirated and collected in a tube. The residual cells were washed twice with PBS, and then collected in the same tube. The cells were lysed with 1 N NaOH (200 μL) and washed twice with PBS, all the resulting solutions were collected in one tube.
The radioactivity in the collected supernatant and cell lysis buffer (600 μL/tube) was measured using a Cobra Model 5002/5003 gamma counter, respectively.
Blocking study: HEK293-PDE7B cells in logarithmic growth phase were plated in 24 well plate (2 × 10^5 cells per well) and cultured overnight. After 24 h, each well was added 2 μCi of [11C]27 with or without unlabeled reference compound 27 or BRL50481, respectively. The resulting culture medium contained 2 μCi of [ 11C]27, 1 µM of unlabeled compound 27 or BRL50481, and 5% DMSO. Cells were incubated at 37 °C for 60 min and samples were collected as described for the control study. The cell uptake was calculated according to the following eq.: cell uptake% = A lysis buffer/(A lysis buffer+Asupernate) (n = 4)

[3] = test system: other PDE isozymes (PDE1A/B/C, 2A, 3A/B, 4A/B/C/D, 5A, 8A, 9A, and 10A); assay: Selectivity over other PDE isozymes; format: biochemical; conditions: at 3 μM of compound 27; human recombinant enzymes
Description: protein-ligand complex were saved and were then loaded into Schrödinger Maestro to generate the ligand interaction plot.
In vitro inhibitory assay to PDE7 of compound 27 and selectivity to other PDEs Functional activity of target compound 27 for inhibition of PDE7A activity and the selectivity over other PDE isozymes (PDE1A/B/C, 2A, 3A/B, 4A/B/C/D, 5A, 8A, 9A, and 10A) were evaluated by Eurofins Panlabs Discovery Services and Reaction Biology Corp., respectively. Human recombinant enzymes were used for the assays. The inhibitory assays were performed and calculated in duplicate at 3 µM. If the inhibition percentage was less than 50%, the assay for half-maximal inhibitory concentration (IC50) value was conducted in […]
CYP450 isoform metabolism and in vitro safety profiling
The inhibitory constant of compound 26 toward cytochrome P450-dependent metabolic pathways was determined for individual CYP isoform (CYP1A2, CYP2C9, CYP2C19, CYP2D6, and CYP3A4). Reference inhibitors were included as positive controls. A 10 µM solution of compound 27 was used for initial screening. If the inhibition percentage was less than 50%, the experiment was stopped. If the inhibition potency was greater than 50%, the gradient concentrations of compound 27 were used for IC 50 determination. The P450 reactions were detected at Ext/Em: 405 nm/460 nm (530 nm/605 nm for CYP2C9) in a […]

[4] = 5 min, single iv 1 mg/kg, male Sprague-Dawley rats, n = 3, 1 mg/kg

With `COc1ccc(Cl)c2c1C1(CCCCC1)NC(=O)N2` [Compound 27] the brain concentration mean [1, 4] was 3316.17 ng/g, the plasma concentration mean [1, 4] was 712.49 ng/mL and the plasma concentration mean ([1]; 60 min, single iv 1 mg/kg, male Sprague-Dawley rats, n = 3, 1 mg/kg) was 39.39 ng/mL. The “brain-to-plasma ratios (Kp)” value ([1]; all measured time points (5-60 min), SD rats, 1 mg/kg iv, 1 mg/kg) was over 3, the “fraction of the compound remaining in the brain” value ([1]; last measured time point (60 min), relative to 5 min peak, rats) was “less than 5%” and the Kp at 5 min ([1]; male, Sprague-Dawley, rat, brain, iv, 1 mg/kg, 5 min, single iv 1 mg/kg, male Sprague-Dawley rats, n = 3, read-out: Kp (brain-to-plasma ratio) mean) was 4.76. For the same molecule, the Kp at 25 min ([1]; male, Sprague-Dawley, rat, brain, iv, 1 mg/kg, 25 min, single iv 1 mg/kg, male Sprague-Dawley rats, n = 3, read-out: Kp (brain-to-plasma ratio) mean) was 4, the Kp at 1 h ([1]; male, Sprague-Dawley, rat, brain, iv, 1 mg/kg, 60 min, single iv 1 mg/kg, male Sprague-Dawley rats, n = 3, read-out: Kp (brain-to-plasma ratio) mean) was 3.35 and the Kp ([1]; male, Sprague-Dawley, rat, brain, iv, 1 mg/kg, all measured time points (5-60 min), SD rats, 1 mg/kg iv, read-out: brain-to-plasma ratios (Kp)) was 3 to 5. The concentration at 5 min ([1]; rat, brain, 5 min, single iv 1 mg/kg, male Sprague-Dawley rats, n = 3, read-out: brain concentration mean) was 3320 ± 378 ng/g, the concentration at 25 min ([1]; rat, brain, 25 min, single iv 1 mg/kg, male Sprague-Dawley rats, n = 3, read-out: brain concentration mean) was 876 ng/g and the concentration at 60 min ([1]; rat, brain, 60 min, single iv 1 mg/kg, male Sprague-Dawley rats, n = 3, read-out: brain concentration mean) was 132 ng/g. It also gave a concentration at 5 min ([1]; rat, plasma, 5 min, single iv 1 mg/kg, male Sprague-Dawley rats, n = 3, read-out: plasma concentration mean) of 712 ± 153 ng/mL, a concentration at 25 min ([1]; rat, plasma, 25 min, single iv 1 mg/kg, male Sprague-Dawley rats, n = 3, read-out: plasma concentration mean) of 229 ng/mL and a concentration at 60 min ([1]; rat, plasma, 60 min, single iv 1 mg/kg, male Sprague-Dawley rats, n = 3, read-out: plasma concentration mean) of 39.4 ± 4.44 ng/mL. For the same molecule, the IC50 (hERG channel) was over 100 µM, the “blockade of [11C]27 cell uptake” value [2] was “ca. 90%” and the “% inhibition of other PDE isomers” value [3] was under 50%.
